Experimental data taken from US6610738B2, “N-disubstituted carbamoyloxy flavones” (priority 2000, dated 2003).
Where two headings read alike, the source gives them in different places.

Tests used:
acetylcholine esterase [1] = target: acetylcholine esterase (Homo sapiens, UniProt P22303); experiment: biochemical
acetylcholine esterase [2] = experiment: AChE inhibition ex vivo (Table II); format: in vivo
[3] = read-out: AchE inhibition IC50 (5′)
[4] = read-out: AchE inhibition IC50 (30′)
[5] = time not given, read-out: AchE inhibition IC50

Chain of acetylcholine esterase (Homo sapiens, UniProt P22303) (P22303 32-614): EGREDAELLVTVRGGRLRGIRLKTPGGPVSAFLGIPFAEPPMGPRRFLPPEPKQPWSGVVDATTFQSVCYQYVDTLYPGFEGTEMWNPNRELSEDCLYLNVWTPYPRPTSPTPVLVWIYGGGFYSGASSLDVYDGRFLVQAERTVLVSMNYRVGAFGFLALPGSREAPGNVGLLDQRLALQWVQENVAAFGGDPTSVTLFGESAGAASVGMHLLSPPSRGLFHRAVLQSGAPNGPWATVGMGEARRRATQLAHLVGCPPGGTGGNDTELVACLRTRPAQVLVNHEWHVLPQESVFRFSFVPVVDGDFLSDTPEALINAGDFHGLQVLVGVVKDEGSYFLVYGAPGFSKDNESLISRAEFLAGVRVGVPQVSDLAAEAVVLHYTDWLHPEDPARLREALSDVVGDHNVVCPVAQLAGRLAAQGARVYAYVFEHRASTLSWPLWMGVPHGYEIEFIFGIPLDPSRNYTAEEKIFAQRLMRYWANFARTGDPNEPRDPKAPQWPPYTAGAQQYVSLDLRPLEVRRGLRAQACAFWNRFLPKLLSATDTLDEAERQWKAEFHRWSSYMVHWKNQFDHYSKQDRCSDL

| melting point | SMILES | IC50 (acetylcholine esterase [1]; [5]) | further results |
| --- | --- | --- | --- |
| 91 to 93.5 °C | CCOc1ccc2c(=O)cc(-c3ccccc3OC(=O)N(C)CC)oc2c1 |  |  |
|  | COc1ccc(-c2cc(=O)c3cc([N+](C)(C)C)ccc3o2)cc1 |  | IC50 (acetylcholine esterase [1]; [3]): 5.5 µM; IC50 (acetylcholine esterase [1]; [4]): 6 µM |
|  | CN(C)C(=O)Oc1cccc(-c2cc(=O)c3ccccc3o2)c1 | 1.4 µM | AchE inhibition Ex vivo (acetylcholine esterase [2]; at 40 μM/kg): 42% at 40 μM/kg |
| 167 to 168 °C | CN(C)C(=O)Oc1cccc(-c2cc(=O)c3cc(N(C)C)ccc3o2)c1 |  |  |
|  | CN(C)CCOc1cccc(-c2cc(=O)c3ccccc3o2)c1 |  | IC50 (acetylcholine esterase [1]; [3]): 10 µM; IC50 (acetylcholine esterase [1]; [4]): 5.8 µM |
| 145.5 to 147 °C | CN(C)C(=O)Oc1ccc2c(=O)cc(-c3ccccc3OC(=O)N(C)C)oc2c1 |  |  |
|  | CCN(C)C(=O)Oc1ccccc1-c1cc(=O)c2ccccc2o1 | 3.5 µM | AchE inhibition Ex vivo (acetylcholine esterase [2]; at 50 μM/kg): 14% at 50 μM/kg |
|  | CCN(C)C(=O)Oc1cccc(-c2cc(=O)c3ccccc3o2)c1 | 41 µM |  |
|  | C[N+](C)(C)c1ccc2oc(-c3ccccc3)cc(=O)c2c1 |  | IC50 (acetylcholine esterase [1]; [3]): 10.5 µM; IC50 (acetylcholine esterase [1]; [4]): 48 µM |
| 133.5 to 135 °C | COc1ccccc1-c1cc(=O)c2ccc(OC(=O)N(C)C)cc2o1 |  |  |
| 166 to 168 °C | CCOc1ccc2c(=O)cc(-c3ccccc3OC(=O)N(C)C)oc2c1 |  |  |
|  | CN(C)C(=O)Oc1ccccc1-c1cc(=O)c2ccccc2o1 | 2.65 µM | AchE inhibition Ex vivo (acetylcholine esterase [2]; at 40 μM/kg): 29% at 40 μM/kg |
| 157 to 159 °C | CN(C)C(=O)Oc1cccc(-c2cc(=O)c3cc(N)ccc3o2)c1 |  |  |
